Test results reported in US20200095296A1, “USE OF PEPTIDES AS BIOMARKERS IN THE DIAGNOSIS, CONFIRMATION AND TREATMENT OF A NEUROLOGICAL DISORDER AND TCR AND/OR HLA IMMUNOPROFILING IN NEURODEGENERATIVE DISEASE” (THE TRUSTEES OF COLUMBIA UNIVERSITY IN THE CITY OF NEW YORK, priority 2017, published 2020).
Changes are numbered by the printed parent chain. Where two headings read alike, the source gives them in different places.

Legend:
HLA A*11:01 = HLA A*11:01 (Homo sapiens, UniProt P04439, A114D/D185E/E176A/F33Y/L180Q/S129P/T187R); test: competition binding assay, purified HLA A*11:01 molecules; conditions: in vitro
DPB1*04:02 = target: T1, DPB1*04:02 (Homo sapiens, UniProt P04440+P20036, A65V/A84D/A85E/L207M); test: competition binding assay, purified HLA DPB1*04:02
T1 sequence (P04440 30-258 A65V/A84D/A85E/L207M): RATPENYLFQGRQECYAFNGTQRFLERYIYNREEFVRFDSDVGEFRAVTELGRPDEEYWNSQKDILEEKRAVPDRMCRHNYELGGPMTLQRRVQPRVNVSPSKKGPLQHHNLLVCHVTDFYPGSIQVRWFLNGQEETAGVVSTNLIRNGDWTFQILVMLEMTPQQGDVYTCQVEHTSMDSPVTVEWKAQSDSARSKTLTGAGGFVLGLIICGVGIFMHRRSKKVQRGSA
T1 sequence (P20036 29-260): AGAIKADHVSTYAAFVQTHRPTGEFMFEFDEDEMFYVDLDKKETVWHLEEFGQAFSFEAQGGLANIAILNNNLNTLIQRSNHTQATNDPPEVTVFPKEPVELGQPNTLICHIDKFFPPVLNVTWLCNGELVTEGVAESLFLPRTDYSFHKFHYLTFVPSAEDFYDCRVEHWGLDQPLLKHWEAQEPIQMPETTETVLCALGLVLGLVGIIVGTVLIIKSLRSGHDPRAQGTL

DPB1*03:01 = target: T2, DPB1*03:01 (Homo sapiens, UniProt P04440+P20036, A65V/A84D/A85E/E86D/F38Y/G113D/G114E/G40L/I94L/L37V/M105V/M116V/P115A/R125K/T199I); test: competition binding assay, purified HLA DPB1*03:01; conditions: purified HLA, radiolabeled peptide competition; nM; read-out: binding to DPB1*03:01 (IC50)
T2 sequence (P20036 29-260): T1 sequence (P20036 29-260)
T2 sequence (P04440 30-258 L37V/F38Y/G40L/A65V/A84D/A85E/E86D/I94L/M105V/G113D/G114E/P115A/M116V/R125K/T199I): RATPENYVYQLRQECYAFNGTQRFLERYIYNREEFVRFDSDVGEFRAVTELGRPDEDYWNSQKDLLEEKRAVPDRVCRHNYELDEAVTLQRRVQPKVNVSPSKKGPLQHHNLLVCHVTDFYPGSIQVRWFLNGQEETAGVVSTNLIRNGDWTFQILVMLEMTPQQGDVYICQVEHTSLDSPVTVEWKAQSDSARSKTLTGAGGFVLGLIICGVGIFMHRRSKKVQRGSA

DPB1*04:01 = target: T3, DPB1*04:01 (Homo sapiens, UniProt P04440); test: competition binding assay, purified HLA DPB1*04:01
T3 sequence (P04440 30-258): T1 sequence (P04440 30-258 A65V/A84D/A85E/L207M) with V36A, D55A, E56A, M178L
T3 sequence (P20036 29-260 partner): T1 sequence (P20036 29-260)

DPB1*02:01 = target: T4, DPB1*02:01 (Homo sapiens, UniProt P04440+P20036, A65V/A84D/A85E/K98E); test: competition binding assay, purified HLA DPB1*02:01
T4 sequence (P20036 29-260): T1 sequence (P20036 29-260)
T4 sequence (P04440 30-258 A65V/A84D/A85E/K98E): T1 sequence (P04440 30-258 A65V/A84D/A85E/L207M) with K69E, M178L

DPB1*05:01 = target: T5, DPB1*05:01 (Homo sapiens, UniProt P04440+P20036, A65V/A84E/F191V/F64L/G113D/G114E/K142R/L158P/M116V/M62Q/P115A/Q81R/R125K/T114A/T199I/T259P/V234M); test: competition binding assay, purified HLA DPB1*05:01
T5 sequence (P20036 29-260 M62Q/Q81R/T114A/K142R/L158P/F191V/T259P): T1 sequence (P20036 29-260) with M34Q, Q53R, T86A, K114R, L130P, F163V, T231P
T5 sequence (P04440 30-258 F64L/A65V/A84E/G113D/G114E/P115A/M116V/R125K/T199I/V234M): T2 sequence (P04440 30-258 L37V/F38Y/G40L/A65V/A84D/A85E/E86D/I94L/M105V/G113D/G114E/P115A/M116V/R125K/T199I) with V8L, Y9F, L11G, F35L, D55E, E56A, D57E, L65I, V76M, V205M

PBMC = test: IFNγ and IL-5 dual ELISPOT after 14 days culture of PBMC with α-syn peptide pools; type: cell-based, human; conditions: IFNγ and IL-5 ELISPOT
Method: To determine whether α-syn derived peptides were recognized by T cells, responses were assayed to pools that each contained ˜twenty 9-10aa peptides predicted to bind common HLA class I types 15, and 15aa peptides spanning the protein that could elicit HLA class II responses. PBMCs from PD and HC were stimulated for 14 days, and IFNγ and IL-5 responses were measured by dual color ELISPOT, enabling quantification of responsive cells. Positive pools were deconvoluted to identify the peptides eliciting cytokine responses. IFNγ was used as a representative cytokine to detect CD8+/HLA class I and CD4+ Th1/Class II T cells, and IL-5 as a representative cytokine secreted by CD4+ Th2/Class II T cells. […] No cells producing both IL-5 and IFNγ were detected. […]
After 14 days of culture with individual peptide pools (5 μg/ml), the response to pools and individual peptides (5 μg/ml) was measured by IFNγ and IL-5 dual ELISPOT 37. […]
To determine whether α-syn-derived peptides were recognized by T cells, responses to pools that each contained approximately twenty peptides of 9-10 amino acids (a.a.) predicted to bind common HLA class I types, (Vita, R. et al. The immune epitope database (IEDB) 3.0. Nucleic Acids Res. 43, D405-D412 (2015)) and peptides of 15 amino acids spanning the protein that could elicit HLA class II responses were assayed. […] No cells producing both IL-5 and IFNγ were detected. […]

DRB5*01:01 = DRB5*01:01 (Homo sapiens, UniProt P01903+Q30154); test: competition binding assay, purified HLA DRB5*01:01; conditions: purified HLA, radiolabeled peptide competition; nM; read-out: binding to DRB5*01:01 (IC50)
DRB4*01:01 = DRB4*01:01 (Homo sapiens, UniProt P01903+P13762, G164S); test: competition binding assay, purified HLA DRB4*01:01; conditions: purified HLA, radiolabeled peptide competition; nM; read-out: binding to DRB4*01:01 (IC50)
[1] = purified HLA, radiolabeled peptide competition, nM, read-out: binding to DPB1*04:02 (IC50)
[2] = purified HLA, radiolabeled peptide competition, nM, read-out: binding to DPB1*04:01 (IC50)
[3] = purified HLA, radiolabeled peptide competition, nM, read-out: binding to DPB1*02:01 (IC50)
[4] = purified HLA, radiolabeled peptide competition, nM, read-out: binding to DPB1*05:01 (IC50)

GVLYVGSKTK [α-syn 10 mer aa36-45]
binding to purified HLA A*11:01 molecules (IC50) (HLA A*11:01): bound poorly

CSCC[C@H](NC(=O)[C@H](CCC(=O)O)NC(=O)[C@H](Cc1ccc(O)cc1)NC(=O)[C@H](C)NC(=O)[C@H](CCC(=O)O)NC(=O)[C@H](CC(N)=O)NC(=O)[C@H](CC(=O)O)NC(=O)[C@@H]1CCCN1C(=O)[C@H](CC(=O)O)NC(=O)[C@@H](NC(=O)[C@@H]1CCCN1C(=O)[C@@H](N)CCSC)C(C)C)C(=O)N1CCC[C@H]1C(=O)N[C@@H](CO)C(=O)N[C@@H](CCC(=O)O)C(=O)O
IC50 (DPB1*04:02; [1]): > 10000 nM | IC50 (DPB1*03:01): > 10000 nM | IC50 (DPB1*04:01; [2]): > 10000 nM | IC50 (DPB1*02:01; [3]): > 10000 nM | IC50 (DPB1*05:01; [4]): > 10000 nM

GKTKEGVLYVGSKTK [α-syn 15 mer aa31-45, Y39 region]
cytokine response elicited (PBMC): apparent Class II restricted IL-5 and IFNγ response | cytokine response elicited (PBMC; listed as GKEGVLYVGSKTK): apparent class II restricted IL-5 and IFNy response

CSCC[C@H](NC(=O)[C@H](CCC(=O)O)NC(=O)[C@H](Cc1ccc(O)cc1)NC(=O)[C@H](C)NC(=O)[C@H](CCC(=O)O)NC(=O)[C@H](CC(N)=O)NC(=O)[C@H](CC(=O)O)NC(=O)[C@@H]1CCCN1C(=O)[C@H](CC(=O)O)NC(=O)[C@@H](NC(=O)[C@@H]1CCCN1C(=O)[C@@H](N)CCSC)C(C)C)C(=O)N1CCC[C@H]1C(=O)N[C@@H](COP(=O)(O)O)C(=O)N[C@@H](CCC(=O)O)C(=O)O
IC50 (DPB1*04:02; [1]): > 10000 nM | IC50 (DPB1*03:01): > 10000 nM | IC50 (DPB1*04:01; [2]): > 10000 nM | IC50 (DRB5*01:01): > 10000 nM | IC50 (DPB1*02:01; [3]): > 10000 nM | IC50 (DRB4*01:01): > 10000 nM | IC50 (DPB1*05:01; [4]): > 10000 nM

CC(C)C[C@H](NC(=O)[C@@H](NC(=O)CNC(=O)[C@H](CCC(=O)O)NC(=O)[C@H](CCCCN)NC(=O)[C@@H](NC(=O)[C@@H](N)CCCCN)[C@@H](C)O)C(C)C)C(=O)N[C@@H](Cc1ccc(OP(=O)(O)O)cc1)C(=O)N[C@H](C(=O)NCC(=O)N[C@@H](CO)C(=O)N[C@@H](CCCCN)C(=O)N[C@H](C(=O)N[C@@H](CCCCN)C(=O)N[C@@H](CCC(=O)O)C(=O)O)[C@@H](C)O)C(C)C
IC50 (DPB1*04:02): 1600 nM | IC50 (DPB1*04:01): 937 nM | IC50 (DPB1*02:01): 620 nM | IC50 (DPB1*05:01): 777 nM

VLYVGSKTKK [10 mer aa37-46]
binding to purified HLA A*11:01 molecules (IC50) (HLA A*11:01): bound poorly

CSCC[C@H](NC(=O)[C@@H](N)CCC(=O)O)C(=O)N1CCC[C@H]1C(=O)N[C@@H](CO)C(=O)N[C@@H](CCC(=O)O)C(=O)N[C@@H](CCC(=O)O)C(=O)NCC(=O)N[C@@H](Cc1ccc(O)cc1)C(=O)N[C@@H](CCC(N)=O)C(=O)N[C@@H](CC(=O)O)C(=O)N[C@@H](Cc1ccc(O)cc1)C(=O)N[C@@H](CCC(=O)O)C(=O)N1CCC[C@H]1C(=O)N[C@@H](CCC(=O)O)C(=O)N[C@@H](C)C(=O)O
IC50 (DPB1*04:02; [1]): > 10000 nM | IC50 (DPB1*03:01): > 10000 nM | IC50 (DPB1*04:01; [2]): > 10000 nM | IC50 (DPB1*02:01; [3]): > 10000 nM | IC50 (DPB1*05:01; [4]): > 10000 nM
